These results are taken from patent US10519452B2, “Antiviral agent comprising RNA oligonucleotide” (priority 2015, dated 2019).

Read-outs that look alike come from different tables or passages of the source. Oligonucleotides are written 5' to 3', each unit as a sugar letter and its base; * is a phosphorothioate linkage, no mark a phosphodiester; rarer units and linkages stand in square brackets, end groups in braces. Plain capitals give the bases only. {PPP} = triphosphate group; r = 2'-OH (RNA)

Holding throughout (type): cell-based
Data set [1] relates to ISG56. The note with it: for change in ISG56 expression: same method as Experimental Example 1, real-time PCR vs GAPDH, FIGS. 5 to 8. (In qPCR the cycle at which signal appears reflects the starting amount.)
For data set [2], the system named is influenza A virus/Puerto Rico/8/34(H1N1)(PR8).
Data set [3] has the same test system. This is another data set of the same source.
The subject of data set [4] is interferon-β. The following applies: HEK293T cells, 1 μM RNA oligonucleotide with lipofectamine LTX, real-time PCR vs GAPDH; FIG. 3 and FIG. 4.
The mark [5] stands for this setting: A549 cells infected with influenza A virus, FIG. 10 and FIG. 11.

As to “5′-OH-8 bp-Bend-GC-Minimum: Minimum-length double-stranded RNA of SEQ ID NO:3 and SEQ ID NO:4, each with a 5′-hydroxy group (chain 1 GGUAGACG; chain 2 CGUUUGCC; RNA, backbone not given here; 5'-hydroxy ends)”, the “change in ISG56 expression” value in data set [1] is “increased the ISG56 expression to a significant level”.

“5′-OH-16mer-Double Bend: Double strands of two base sequences of SEQ ID NO:18, each with a 5′-hydroxy group; palindromic, two helical bend structures (chain 1 GGUAGACGCGUUUGCC; chain 2 GGUAGACGCGUUUGCC; sugars by position and backbone not given here; 5'-hydroxy ends, palindromic duplex)”: the “change in ISG56 expression” value in data set [1] was “increased the ISG56 expression to a significant level”.

As for “5′-OH-Bend-GC-8 bp-PS: 5′-OH-Bend-GC-8 bp RNA oligonucleotide with phosphodiester bonds substituted with phosphorothioate bonds (rG*rG*rU*rA*rG*rA*rC*rG*rU*rU*rC*rG*rC*rG*rU*rU*rU*rG*rC*rC; 5'-hydroxy, hairpin)”, the “change in ISG56 expression” value in data set [1] is on record as “increased the ISG56 expression to a significant level”. In data set [2], the “antiviral activity against influenza A virus (Western blot of viral NP and NS1)” value is reported as “showed antiviral activity against influenza A virus in a concentration-dependent manner”. For the same molecule, the “antiviral activity against influenza A virus (plaque assay, titer of viruses)” value in data set [3] is given as “showed antiviral activity against influenza A virus in a concentration-dependent manner”.

For “5′-OH-Bend-GC-8 bp: Shorter hairpin RNA composed of the base sequence of SEQ ID NO:10 with a hydroxy group at the 5′-end (GGUAGACGUUCGCGUUUGCC; RNA, phosphodiester; 5'-hydroxy, hairpin)”, the “change in interferon-β expression” value in data set [4] is recorded as “increased the interferon-β expression to a significant level”.

With “5′-OH-Bend-GC: RNA oligonucleotide composed of the base sequence of SEQ ID NO:8 with a hydroxy group at the 5′-end (GGUAGACGCGCGCGUUCGCGCGCGCGUUUGCC; RNA, backbone not given here; 5'-hydroxy, hairpin)”, the “change in interferon-β expression” value in data set [4] is reported as “increased the interferon-β expression to a significant level”.

Consider “5′-OH-iav: RNA oligonucleotide composed of the base sequence of SEQ ID NO:6 with a hydroxy group at the 5′-end (GAGUAGAAACAAGGCUUCGGCCUGCUUUUGCUC; RNA, backbone not given here; 5'-hydroxy)”, for which, in data set [4], the “change in interferon-β expression” value was “increase the expression of interferon-β and ISG56”. Besides, the “change in ISG56 expression” value in data set [1] is “increase the expression of interferon-β and ISG56”.

In the case of “5′-PPP-iav: RNA oligonucleotide composed of the base sequence of SEQ ID NO:6 with a triphosphate group at the 5′-end (GAGUAGAAACAAGGCUUCGGCCUGCUUUUGCUC; RNA, 5' {PPP}, backbone not given here)”, the “change in interferon-β expression” value in data set [4] is “increase the expression of interferon-β and ISG56”. Also, in data set [1], the “change in ISG56 expression” value is “increase the expression of interferon-β and ISG56”.

B1: 5′-OH-Int-NS1: RNA oligonucleotide composed of the base sequence of SEQ ID NO:7 with a hydroxy group at the 5′-end (nucleic acid)
chain: AGUAGAAACAAGGGUGUUUUUUAUUAUUAAAUAAGCUGAAGUGUUUGGAUCCAUUAUGUCUUUGUCACCCUGCUUUUGCU
modifications: RNA, backbone not given here; 5'-hydroxy
With B1, the “change in interferon-β expression” value in data set [4] is recorded as “increased the interferon-β expression to a significant level”.

B2: 5′-OH-Long_Bend: Long-length RNA oligonucleotide composed of the base sequence of SEQ ID NO:19 with a hydroxy group at the 5′-end (nucleic acid)
chain: GGUAGACGAAACCAGAUAAAAAAAAAAAAAAAAAAAAAAAAAAUAAUUUUUUUUUUUUUUUUUUUUUUUUUUAUCUGGUUUCGUUUGCC
modifications: RNA, phosphodiester; 5'-hydroxy
As to B2, in data set [1], the “change in ISG56 expression” value was “increased the ISG56 expression to a significant level”. For the same molecule, in data set [2] (setting [5]), the “concentration at which expression of viral protein was significantly inhibited (Western blot)” value is recorded as at least 10 nM. For the same molecule, the “antiviral effect at low concentration compared with positive control (Western blot)” value in data set [2] (A549 cells, 10 nM, positive control 0.1 μg/ml poly I:C, FIG. 9A) is given as “excellent effect corresponding to the positive control group (poly I:C)”. Besides, the “antiviral activity against influenza A virus (Western blot of viral NP and NS1)” value in data set [2] (A549 cells, 10, 30 or 100 nM, transfected 24 h before infection at 0.1 MOI, FIG. 9A) was “showed antiviral activity against influenza A virus in a concentration-dependent manner”. In addition, the “antiviral effect at low concentration compared with positive control (plaque assay)” value in data set [3] (A549 cells, 10 nM, positive control 0.1 μg/ml poly I:C, FIG. 9B) is reported as “excellent effect corresponding to the positive control group (poly I:C)”. Besides, the “antiviral activity against influenza A virus (plaque assay, titer of viruses)” value in data set [3] (A549 cells, 10, 30 or 100 nM, titer on MDCK cells, FIG. 9B) was “showed antiviral activity against influenza A virus in a concentration-dependent manner”.

B3: 5′-OH-Long_Bend-BPS: 5′-OH-Long_Bend RNA oligonucleotide with part of phosphodiester bonds substituted with phosphorothioate bonds (nucleic acid)
chain: B2 chain
modifications: RNA, backbone not given here; 5'-hydroxy, partial phosphorothioate
With B3, the “increase in the ISG56 expression as compared to 5′-OH-Bend-GC-8 bp” value in data set [1] (FIG. 8) was “about 7 fold”. Further, the “change in ISG56 expression” value in data set [1] is “increased the ISG56 expression to a significant level”. For the same molecule, the “concentration at which expression of viral protein was significantly inhibited (Western blot)” value in data set [2] was at least 1 nM.

B4: 5′-OH-Long_Bend Short: RNA oligonucleotide composed of the base sequence of SEQ ID NO:20 with a hydroxy group at the 5′-end (nucleic acid)
chain: GGUAGACGAAAAAAAAAAAAAAAAAAAAAAAAAAUAAUUUUUUUUUUUUUUUUUUUUUUUUUUCGUUUGCC
modifications: RNA, backbone not given here; 5'-hydroxy
Take B4: the “concentration at which expression of viral protein was significantly inhibited (Western blot)” value in data set [2] (setting [5]) was found to be 100 nM.
